According to patent US6867009B2 (priority 1999, dated 2005):
Values joined by “and” are separate entries in the source; they are usually repeats but may differ in a detail not shown here. Equal values may be shown once. Read-outs that look alike come from different tables or passages of the source.

Experiments:
[1] = target: T1, rat vanilloid-receptor-like protein 1 (VRL-1) (Rattus norvegicus, UniProt Q9WUD2); conditions: cited from earlier work
T1 sequence (Q9WUD2 1-761): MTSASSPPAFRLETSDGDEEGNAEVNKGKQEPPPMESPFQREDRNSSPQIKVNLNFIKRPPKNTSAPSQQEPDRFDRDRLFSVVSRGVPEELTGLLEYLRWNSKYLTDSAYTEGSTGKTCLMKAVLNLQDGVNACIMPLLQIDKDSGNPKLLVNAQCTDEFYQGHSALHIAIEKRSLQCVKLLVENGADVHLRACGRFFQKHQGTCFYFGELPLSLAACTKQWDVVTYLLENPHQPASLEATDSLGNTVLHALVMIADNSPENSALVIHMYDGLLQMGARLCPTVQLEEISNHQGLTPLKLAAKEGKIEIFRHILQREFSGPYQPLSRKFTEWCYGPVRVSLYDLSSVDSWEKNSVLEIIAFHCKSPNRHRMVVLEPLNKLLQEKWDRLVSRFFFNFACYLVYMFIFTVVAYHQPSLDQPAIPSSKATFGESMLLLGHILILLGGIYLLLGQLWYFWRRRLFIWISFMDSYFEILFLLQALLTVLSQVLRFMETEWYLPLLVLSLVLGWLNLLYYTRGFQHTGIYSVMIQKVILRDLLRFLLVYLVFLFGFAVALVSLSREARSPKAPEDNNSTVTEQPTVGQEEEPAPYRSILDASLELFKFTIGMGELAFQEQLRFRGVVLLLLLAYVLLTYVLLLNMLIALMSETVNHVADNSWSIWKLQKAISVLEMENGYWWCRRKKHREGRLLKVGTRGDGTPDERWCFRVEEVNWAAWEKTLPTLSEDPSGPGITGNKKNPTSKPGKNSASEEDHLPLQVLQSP

HEK 293T cells = format: cell-based, human
[2] = target: T2, short form of human capsaicin receptor (Homo sapiens, UniProt Q8NER1, M315I/P91S/T469I); format: cell-based
T2 construct: expressed in transfected cells; host or cells: HEK 293T (transient, LIPOFECTAMINE; plasmid PT36)

rat VR1 [3] = target: T3, rat VR1 (Rattus norvegicus, UniProt O35433); experiment: cell-based
T3 construct: expressed in transfected cells

[4] = tested on: rat dorsal root ganglion neurons; conditions: cited from earlier work
human capsaicin receptor = target: T4, human capsaicin receptor (Homo sapiens, UniProt Q8NER1, T469I); format: cell-based
T4 construct: expressed in transfected cells; host or cells: HEK 293T (transient, LIPOFECTAMINE; pBK-CMV phagemid clones PT35, PT44)

[5] = target: T5, native rat vanilloid receptors (Rattus norvegicus, UniProt O35433); experiment: biochemical; format: binding
T5 construct: rat DRG membranes expressing native vanilloid receptors; from tissue; host or cells: dorsal root ganglia of female Sprague-Dawley rats, partially purified membrane fraction

rat VR1 [6] = target: T3, rat VR1; experiment: biochemical; format: binding
rat VR1 [7] = target: T3, rat VR1; experiment: biochemical; format: binding; remark: listed apart in the source
rat VR1 [8] = target: T3, rat VR1; experiment: cell-based; remark: listed apart in the source
VR1 = target: T6, VR1 (Rattus norvegicus, UniProt O35433); conditions: cited from earlier work
T6 construct: host or cells: Xenopus oocytes (A8); VR1-transfected HEK293 cells (A9)

vanilloid receptor (VR) = target: T7, vanilloid receptor (VR) (Rattus norvegicus, UniProt O35433); conditions: cited from earlier work
T7 construct: With regard to DRG neurons expressing native VRs this is clearly not the case; host or cells: intact rat dorsal root ganglion neurons

[9] = read-out: 45Ca2+-uptake (EC50, nM), agonists
[10] = read-out: EC50 for inducing calcium uptake / influx
[11] = EC50 (potency) of calcium mobilization
[12] = Binding affinity (nM), radioligand itself
[13] = read-out: Ki for inhibition of [3H]RTX binding

T5 sequence (O35433 whole entry): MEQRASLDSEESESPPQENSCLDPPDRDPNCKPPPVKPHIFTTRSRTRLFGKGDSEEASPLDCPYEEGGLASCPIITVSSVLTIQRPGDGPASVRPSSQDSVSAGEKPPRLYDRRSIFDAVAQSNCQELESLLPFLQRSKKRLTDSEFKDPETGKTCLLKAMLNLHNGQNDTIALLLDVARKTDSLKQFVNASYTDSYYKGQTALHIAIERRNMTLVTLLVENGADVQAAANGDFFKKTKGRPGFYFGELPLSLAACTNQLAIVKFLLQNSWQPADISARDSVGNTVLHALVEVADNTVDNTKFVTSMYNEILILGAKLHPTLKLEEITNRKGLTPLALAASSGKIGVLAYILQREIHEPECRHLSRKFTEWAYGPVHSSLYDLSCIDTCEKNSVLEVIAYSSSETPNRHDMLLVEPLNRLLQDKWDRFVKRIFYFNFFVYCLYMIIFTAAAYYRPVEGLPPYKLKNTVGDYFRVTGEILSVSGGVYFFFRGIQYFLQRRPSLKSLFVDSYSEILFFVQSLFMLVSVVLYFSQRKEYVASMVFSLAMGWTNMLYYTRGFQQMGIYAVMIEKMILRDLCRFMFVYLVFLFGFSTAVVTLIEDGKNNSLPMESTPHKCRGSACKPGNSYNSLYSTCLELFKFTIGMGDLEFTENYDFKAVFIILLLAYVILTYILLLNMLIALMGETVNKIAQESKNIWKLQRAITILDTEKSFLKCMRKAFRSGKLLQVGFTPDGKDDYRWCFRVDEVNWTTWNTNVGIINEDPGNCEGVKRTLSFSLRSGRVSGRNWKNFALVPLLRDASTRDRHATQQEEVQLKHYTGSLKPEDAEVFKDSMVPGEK
T3 sequence (O35433 whole entry): as above
T4 sequence (Q8NER1 whole entry T469I): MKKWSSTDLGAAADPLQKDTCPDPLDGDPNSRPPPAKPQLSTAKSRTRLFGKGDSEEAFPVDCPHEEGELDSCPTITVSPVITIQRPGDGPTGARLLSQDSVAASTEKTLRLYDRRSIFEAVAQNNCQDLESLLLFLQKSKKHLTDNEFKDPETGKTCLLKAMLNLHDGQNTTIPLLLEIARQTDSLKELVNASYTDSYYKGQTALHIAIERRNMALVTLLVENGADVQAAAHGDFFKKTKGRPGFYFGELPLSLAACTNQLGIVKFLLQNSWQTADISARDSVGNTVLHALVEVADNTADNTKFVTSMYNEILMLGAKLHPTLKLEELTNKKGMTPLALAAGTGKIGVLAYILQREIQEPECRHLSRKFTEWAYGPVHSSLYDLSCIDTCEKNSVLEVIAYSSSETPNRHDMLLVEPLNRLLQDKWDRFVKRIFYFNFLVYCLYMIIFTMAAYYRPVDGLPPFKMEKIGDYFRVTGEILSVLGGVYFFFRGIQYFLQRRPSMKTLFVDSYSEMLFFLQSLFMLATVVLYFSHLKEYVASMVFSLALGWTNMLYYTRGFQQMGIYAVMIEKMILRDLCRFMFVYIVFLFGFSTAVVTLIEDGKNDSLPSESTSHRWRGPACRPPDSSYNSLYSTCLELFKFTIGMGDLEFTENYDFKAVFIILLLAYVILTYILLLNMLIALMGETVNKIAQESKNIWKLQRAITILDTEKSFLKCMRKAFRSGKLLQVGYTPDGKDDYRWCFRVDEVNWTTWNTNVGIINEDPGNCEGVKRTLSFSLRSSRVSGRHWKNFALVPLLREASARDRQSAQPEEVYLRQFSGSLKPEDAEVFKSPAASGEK
T7 sequence (O35433 whole entry): as the sequence (O35433 whole entry) above
T6 sequence (O35433 whole entry): as above
T2 sequence (Q8NER1 with tags, fused parts or gaps P91S/M315I/T469I): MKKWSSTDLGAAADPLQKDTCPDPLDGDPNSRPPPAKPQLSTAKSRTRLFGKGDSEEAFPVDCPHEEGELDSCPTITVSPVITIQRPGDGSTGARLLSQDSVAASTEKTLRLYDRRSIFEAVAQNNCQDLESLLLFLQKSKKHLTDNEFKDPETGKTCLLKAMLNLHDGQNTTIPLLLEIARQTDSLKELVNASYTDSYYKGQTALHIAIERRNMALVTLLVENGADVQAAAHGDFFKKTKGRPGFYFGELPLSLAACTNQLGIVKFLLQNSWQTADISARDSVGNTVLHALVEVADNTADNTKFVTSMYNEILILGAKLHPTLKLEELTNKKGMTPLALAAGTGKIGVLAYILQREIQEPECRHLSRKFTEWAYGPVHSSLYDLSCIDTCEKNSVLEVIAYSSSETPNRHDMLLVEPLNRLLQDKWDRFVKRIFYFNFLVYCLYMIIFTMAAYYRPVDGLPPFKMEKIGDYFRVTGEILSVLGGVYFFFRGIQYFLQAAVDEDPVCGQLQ

For COc1cc(CNC(=O)CCCC/C=C/C(C)C)ccc1O [capsaicin], the “sensitivity of VRL-1” value [1] is listed as “insensitive”, the “Ave Max Response (RFU)” value (HEK 293T cells) is listed as 843 RFU and the “Ave Max Response (RFU)” value [2] is listed as 805 RFU. For the same molecule, the “time to peak value of calcium mobilization response” value (rat VR1 [3]) was at most 1 min, the EC50 [4, 9] was 340 nM and the EC50 [4, 10] was 270 nM. For the same molecule, the “Ave Max Response (RFU)” value (human capsaicin receptor) was 7257 RFU and 5529 RFU.
In the case of Oc1cc2c(cc1O)CN(C(=S)NCCc1ccc(Cl)cc1)CCC2 [capsazepine], the Ki [5] is reported as 8600 nM, the Ki (rat VR1 [6]; Binding affinity (nM), competing ligands) is reported as 5100 nM and the Ki (rat VR1 [3]; Ca2+-mobilization, Ki value) is reported as 140 nM and 1100 nM. The IC50 (rat VR1 [3]; IC50 for inhibition of capsaicin-evoked calcium mobilization) was 2400 nM and 330 nM and the Ki ([4]; read-out: 45Ca2+-uptake, Ki value) was 271 nM.
In the case of CC1(C)C[C@H]2C=C(C=O)[C@]3(C=O)C[C@]3(C)[C@H]2C1 [isovelleral], the Ki [5] is reported as 24000 nM and the Ki (rat VR1 [7]; Ki for inhibition of [3H]RTX binding) is reported as 18000 nM and 20000 nM.
Molecule CCCCCCCC/C=C\CCCCCCCC(=O)NCc1ccc(O)c(OC)c1 [olvanil] has a Ki [5] of 300 nM, an EC50 (rat VR1 [3]; Ca2+-mobilization (EC50, nM), agonists) of 216 nM and an EC50 (rat VR1 [3]; [11]) of 22 nM. For the same molecule, the EC50 [4, 9] was 170 nM.
With C=C(C)[C@]12C[C@@H](C)[C@@]34O[C@](Cc5ccccc5)(O[C@@H]1[C@@H]3C=C(COC(=O)Cc1ccc(O)c(OC)c1)C[C@]1(O)C(=O)C(C)=C[C@@H]41)O2 [resiniferatoxin, Resiniferatoxin] the EC50 (rat VR1 [8]) was 4.1 nM, the Bmax [5] was 290+/−10 fmol/mg protein and the “Hill coefficient, FIG. 2” value [5] was 1.5. For the same molecule, the “Hill number (cooperativity index)” value [5] was 1.7 and 1.9+/−2, the “maximal receptor density, FIG. 2” value [5] was 302 fmol per one million cells and the Kd [5, 12] was 0.07 nM. For the same molecule, the Kd ([5]; Half-maximal binding, FIG. 2) was 0.06 nM, the Kd ([5]; [3H]RTX Kd) was 0.07 nM and the Hill number (rat VR1 [6]) was 1.8 and 1.9+/−0.1. The maximal receptor density (rat VR1 [6]) was 470+/−30 fmol/10^6 cells, the Kd (rat VR1 [6]; [12]) was 0.13 nM and the Kd (rat VR1 [6]; [3H]RTX binding affinity (Kd)) was 0.103 nM. The “time-course of calcium mobilization response” value (rat VR1 [3]) was “slowly developing but persistent calcium currents”, the EC50 (rat VR1 [3]; [11]) was 1.4 nM and the “fold more potent than capsaicin” value (VR1) was “approximately 20 fold”. The “fold more potent for binding than for inducing calcium uptake” value (vanilloid receptor (VR)) was “approximately 25 fold”, the Kd (vanilloid receptor (VR); read-out: Kd of binding) was 0.04 nM and the Bmax (rat VR1 [7]) was 250+/−24 fmol/10^6 cells. The “Hill coefficient, FIG. 1A” value (rat VR1 [7]) was 1.8, the “Hill number (cooperativity index)” value (rat VR1 [7]) was 2.1 and 2.1+/−0.2 and the “dissociation constant (1st order decay)” value (rat VR1 [7]) was 0.12 ± 0.02 min⁻¹. For the same molecule, the “maximal receptor density, FIG. 1A” value (rat VR1 [7]) was 222 fmol per one million cells, the “non-specific binding as share of total binding” value (rat VR1 [7]) was “approximately 20%” and the receptor density (rat VR1 [7]) was 1.5×10^5 binding sites per cell. The “specific binding attained, of its peak value” (rat VR1 [7]) was “approximately 90%”, the Kd (rat VR1 [7]; Half-maximal binding, FIG. 1A) was 0.056 nM and the Kd (rat VR1 [7]; [3H]RTX binding affinity (half-maximal binding)) was 0.084 nM. The EC50 [4, 10] was 1 nM.
With N.N.N.N.N.N.N.N.N.N.N.N.N.N.[Cl-].[Cl-].[Cl-].[Cl-].[Cl-].[Cl-].[O-2].[O-2].[Ru+3].[Ru+3].[Ru+4] [ruthenium red] the “Binding affinity (nM), competing ligands” value [5] was “no effect”, the “Binding affinity (nM), competing ligands” value (rat VR1 [6]) was “no effect” and the IC50 (rat VR1 [3]; read-out: IC50 for prevention of calcium mobilization by capsaicin, n=7) was 210 nM.
With CC(C)=CCC/C(C)=C/CC/C(C)=C/Cc1c(C)c(C=O)c(O)c(O)c1O [scutigeral] the Ki [5, 13] was 21000 nM and the Ki (rat VR1 [7]; [13]) was 20000 nM and 18000 nM.
